How the values were obtained:
[1] = target: T1, Solute carrier organic anion transporter family member 1A4 (Rattus norvegicus, UniProt O35913); test: TP_TRANSPORTER: Western in vivo SD rat, liver; format: functional, organism-based, Sprague-Dawley
T1 sequence (O35913 whole entry): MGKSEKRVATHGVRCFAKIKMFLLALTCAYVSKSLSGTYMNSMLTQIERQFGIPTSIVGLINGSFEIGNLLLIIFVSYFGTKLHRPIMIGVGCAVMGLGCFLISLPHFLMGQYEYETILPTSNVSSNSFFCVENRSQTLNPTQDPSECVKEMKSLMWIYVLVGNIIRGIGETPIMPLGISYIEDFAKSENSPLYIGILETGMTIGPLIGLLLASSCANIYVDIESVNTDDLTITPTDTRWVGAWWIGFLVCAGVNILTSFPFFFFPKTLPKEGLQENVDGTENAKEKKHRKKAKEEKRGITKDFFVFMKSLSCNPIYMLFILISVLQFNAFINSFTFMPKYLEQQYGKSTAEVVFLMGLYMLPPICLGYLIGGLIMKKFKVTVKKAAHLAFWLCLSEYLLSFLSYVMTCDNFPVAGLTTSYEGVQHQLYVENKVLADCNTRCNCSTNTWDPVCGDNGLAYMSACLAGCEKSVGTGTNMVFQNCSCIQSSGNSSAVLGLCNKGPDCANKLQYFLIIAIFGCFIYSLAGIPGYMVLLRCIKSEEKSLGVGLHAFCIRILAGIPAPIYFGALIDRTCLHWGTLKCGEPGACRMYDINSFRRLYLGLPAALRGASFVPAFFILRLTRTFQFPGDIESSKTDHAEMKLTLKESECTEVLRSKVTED

[2] = target: T1, Solute carrier organic anion transporter family member 1A4; test: TP_TRANSPORTER: Northern blot in vivo SD rat, liver; format: functional, organism-based, Sprague-Dawley

Which Activity [1] does the source give for Clc1cc2c(cc1Cl)Oc1cc(Cl)c(Cl)cc1O2 [2,3,7,8-TETRACHLORODIBENZO-P-DIOXIN] here?
The Activity was “inducer [Decrease]”.

O=c1cc(-c2ccccc2)oc2ccc3ccccc3c12 [BETA-NAPHTHOFLAVONE] was tested. Which Activity [1] did it give?
The Activity was “inducer [Decrease]”.

How did the Activity [1] turn out when CCCC[C@@H](CC)COC(=O)c1ccccc1C(=O)OC[C@@H](CC)CCCC [BIS(2-ETHYLHEXYL)PHTHALATE] was run?
The Activity was “inducer [+]”.

For C[C@@H]1C[C@H]2[C@@H]3CCC4=CC(=O)C=C[C@]4(C)[C@@]3(F)[C@@H](O)C[C@]2(C)[C@@]1(O)C(=O)CO [DEXAMETHASONE], which Activity [1] is on record?
The Activity was “inducer [+]”.

How did the Activity [2] turn out when C=CCSCC=C [DIALLYL SULFIDE] was run?
The Activity was “inducer [+]”.

What about the Activity [1] of the same molecule?
The Activity was “inducer [+]”.

For OCc1c[nH]c2ccccc12 [INDOLE-3-CARBINOL], which Activity [2] is on record?
Its Activity is “inducer [+]”.

What about the Activity [1] of the same molecule?
The Activity was “inducer [Decrease]”.

How did the Activity [1] turn out when CCC1(c2ccccc2)C(=O)NC(=O)NC1=O [PHENOBARBITAL] was run?
The Activity was “inducer [+]”.

How did the Activity [1] turn out when Clc1ccc(-c2cc(Cl)c(Cl)cc2Cl)c(Cl)c1 [POLYCHLORINATED BIPHENYL 99] was run?
Its Activity is “inducer [+]”.

How did the Activity [1] turn out when Clc1ccc(-c2cc(Cl)c(Cl)c(Cl)c2)cc1Cl [POLYCHLORINATED BIPHENYL 126] was run?
The Activity was “inducer [Decrease]”.

What does the source list for CC(=O)[C@H]1[C@H](C#N)C[C@H]2[C@@H]3CC=C4C[C@@H](O)CC[C@]4(C)[C@H]3CC[C@@]21C [PREGNENOLONE CARBONITRILE]?
Activity [2]: inducer [+]; Activity [1]: inducer [+]

CC(=O)S[C@@H]1CC2=CC(=O)CC[C@]2(C)[C@H]2CC[C@@]3(C)[C@@H](CC[C@@]34CCC(=O)O4)[C@H]12 [SPIRONOLACTONE] was tested. Which Activity [1] did it give?
The Activity was “inducer [+]”.

— ChEMBL document CHEMBL2074300, “Induction profile of rat organic anion transporting polypeptide 2 (oatp2) by prototypical drug-metabolizing enzyme inducers that activate gene expression through ligand-activated transcription factor pathways” (J Pharmacol Exp Ther, 2002)
